# Source: patent US20050101595A1, “N-containing cycloalkyl-substituted amino-thiazole derivatives and pharmaceutical compositions for inhibiting cell proliferation and methods for their use” (PFIZER INC., priority 2003, published 2005)
# Counter-ions that a name gives are not always drawn.
# Columns and labels:
# CDK2/Cyclin A = CDK2/Cyclin A (Homo sapiens, UniProt P24941); test: Inhibition of CDK2/Cyclin A Retinoblastoma Kinase Activity; type: biochemical; details: for inhibition at 0.05 µM: read-out: % inhibition of CDK2 (@ 0.05 μM), compound at 0.05 μM; for Ki: apparent Ki, CDK2/proteolyzed cyclin A, Rb fragment substrate, 25 μM ATP
# Summary of the method: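 Percent inhibition is calculated against DMSO-only wells after subtracting no-enzyme background. The enzyme is human CDK2 complexed with proteolyzed cyclin A, used at 10 nM or 19 nM on an Rb fragment with 25 μM [32/33P]ATP, at pH 7.4 and 30° C.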
# HCT-116 cell line = test: Inhibition of cell growth, tetrazolium salt (MTT) assay; type: cell-based; details: Homo sapiens, MTT; for inhibition at 0.175 µM: HCT-116, HCT-116 cells, compound at 0.175 uM; for IC50: HCT-116, 120 h, first HCT-116 column (c4), three to five days, read-out: HCT-116 IC50
# Summary of the method: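 Growth inhibition by MTT reduction at 540 nm (0.2 mg/mL, 4 h at 37° C, formazan dissolved in DMSO), normalized to cells given only 0.5% v/v DMSO. HCT-116 cultures in McCoy's 5A were dosed 4 h post-plating and kept three to five days at 37° C, 5% CO2.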
Structure (SMILES),inhibition at 0.05 µM (CDK2/Cyclin A) [%],Ki (CDK2/Cyclin A) [nM],IC50 (HCT-116 cell line) [nM],inhibition at 0.175 µM (HCT-116 cell line) [%]
Nc1nc(NC2CCN(S(=O)(=O)CCCN[C@@H]3CCCC[C@@H]3CO)CC2)sc1C(=O)c1c(F)cccc1F [Example V71],85,,,5
"Nc1nc(NC2CCN(S(=O)(=O)CCCNC3CCCCC3)CC2)sc1C(=O)c1c(F)cccc1F [Example K55, {4-Amino-2-[1-(3-cyclohexylamino-propane-1-sulfonyl)-piperidin-4-ylamino]-thiazol-5-yl}-(2,6-difluoro-phenyl)-methanone]",,8,680,
COCC(C)NCCCS(=O)(=O)N1CCC(Nc2nc(N)c(C(=O)c3c(F)cccc3F)s2)CC1 (stereo not drawn) [Example V58],80,,,10
Nc1nc(NC2CCN(S(=O)(=O)CCCNCCN3CCCC3)CC2)sc1C(=O)c1c(F)cccc1F [Example V9],78,,,13
"CC1CCN(CCCS(=O)(=O)N2CCC(Nc3nc(N)c(C(=O)c4c(F)cccc4F)s3)CC2)CC1 [Example K58, {4-Amino-2-[(1-{[3-(4-methylpiperidin-1-yl)propyl]sulfonyl}piperidin-4-yl)amino]-1,3-thiazol-5-yl}(2,6-difluorophenyl)methanone]",,11,150,
Nc1nc(NC2CCN(S(=O)(=O)CCCN3CCCCC3)CC2)sc1C(=O)c1c(F)cccc1F [Example V55],84,,,56
Nc1nc(NC2CCN(S(=O)(=O)CCCNC3CCCC3)CC2)sc1C(=O)c1c(F)cccc1F [Example V75],88,,,19
CCN(CC)CCN(C)CCCS(=O)(=O)N1CCC(Nc2nc(N)c(C(=O)c3c(F)cccc3F)s2)CC1 [Example V33],76,,,16
CN(C)CCCNCCCS(=O)(=O)N1CCC(Nc2nc(N)c(C(=O)c3c(F)cccc3F)s2)CC1 [Example V15],62,,,11
"CN(CCCS(=O)(=O)N1CCC(Nc2nc(N)c(C(=O)c3c(F)cccc3F)s2)CC1)Cc1ccco1 [Example V179, (4-Amino-2-{[1-({3-[(2-furylmethyl)(methyl)amino]propyl}sulfonyl)-4-piperidinyl]amino}-1,3-thiazol-5-yl)(2,6-difluorophenyl)methanone.]",,11,170,
CN(CCO)CCCS(=O)(=O)N1CCC(Nc2nc(N)c(C(=O)c3c(F)cccc3F)s2)CC1 [Example V148],83,,,2
COC(=O)CCCNCCCS(=O)(=O)N1CCC(Nc2nc(N)c(C(=O)c3c(F)cccc3F)s2)CC1 [Example V141],82,,,22
Nc1nc(NC2CCN(S(=O)(=O)CCCNCCOCCO)CC2)sc1C(=O)c1c(F)cccc1F [Example V11],74,,,11
CC(NCCCS(=O)(=O)N1CCC(Nc2nc(N)c(C(=O)c3c(F)cccc3F)s2)CC1)c1ccccc1 (stereo not drawn) [Example V53],91,,,75
Nc1nc(NC2CCN(S(=O)(=O)CCCNCCc3cccs3)CC2)sc1C(=O)c1c(F)cccc1F [Example V76],89,,,44
Nc1nc(NC2CCN(S(=O)(=O)CCCNc3cc(O)c4ccccc4n3)CC2)sc1C(=O)c1c(F)cccc1F [Example V140],93,,,0
CCN(CCCS(=O)(=O)N1CCC(Nc2nc(N)c(C(=O)c3c(F)cccc3F)s2)CC1)CCOC [Example V130],75,,,36

Structure (SMILES),inhibition at 0.05 µM (CDK2/Cyclin A) [%],Ki (CDK2/Cyclin A) [nM],IC50 (HCT-116 cell line) [nM],inhibition at 0.175 µM (HCT-116 cell line) [%]
Nc1nc(NC2CCN(S(=O)(=O)CCCNC3CCCCCCC3)CC2)sc1Cc1c(F)cccc1F [Example V158],90,,,23
"Nc1nc(NC2CCN(S(=O)(=O)CCCNc3ccccn3)CC2)sc1C(=O)c1c(F)cccc1F [Example K56, (4-Amino-2-{1-[3-(pyridin-2-ylamino)-propane-1-sulfonyl]-piperidin-4-ylamino}-thiazol-5-yl)-(2,6-difluoro-phenyl)-methanone. Trifluoroacetic Acid Salt]",,8,2640,
CC1CN(CCCS(=O)(=O)N2CCC(Nc3nc(N)c(C(=O)c4c(F)cccc4F)s3)CC2)CC(C)O1 (stereo not drawn) [Example V31],83,,,48
Nc1nc(NC2CCN(S(=O)(=O)CCCN3CCSC3)CC2)sc1C(=O)c1c(F)cccc1F [Example V101],80,,,22
CC(C)(C)c1cc(NCCCS(=O)(=O)N2CCC(Nc3nc(N)c(C(=O)c4c(F)cccc4F)s3)CC2)no1 [Example V117],80,,,0
CCC(COC)NCCCS(=O)(=O)N1CCC(Nc2nc(N)c(C(=O)c3c(F)cccc3F)s2)CC1 (stereo not drawn) [Example V97],81,,,28
Nc1nc(NC2CCN(S(=O)(=O)CCCN3CCN(CCO)CC3)CC2)sc1C(=O)c1c(F)cccc1F [Example V34],67,,,16
Cc1nnc(CN(C)CCCS(=O)(=O)N2CCC(Nc3nc(N)c(C(=O)c4c(F)cccc4F)s3)CC2)o1 [Example V176],73,,,0
Nc1nc(NC2CCN(S(=O)(=O)CCCN3CCCCC3CCO)CC2)sc1C(=O)c1c(F)cccc1F (stereo not drawn) [Example V38],80,,,1
Nc1nc(NC2CCN(S(=O)(=O)CCCN3CCC(O)C3)CC2)sc1C(=O)c1c(F)cccc1F (stereo not drawn) [Example V68],85,,,10
CCN(CCO)CCCS(=O)(=O)N1CCC(Nc2nc(N)c(C(=O)c3c(F)cccc3F)s2)CC1 [Example V51],79,,,0
NC(=O)C1CCN(CCCS(=O)(=O)N2CCC(Nc3nc(N)c(C(=O)c4c(F)cccc4F)s3)CC2)CC1 [Example V45],83,,,25
CC1(C)CCCN(CCCS(=O)(=O)N2CCC(Nc3nc(N)c(C(=O)c4c(F)cccc4F)s3)CC2)C1 [Example V46],77,,,71
Nc1nc(NC2CCN(S(=O)(=O)CCCN3C[C@@H]4C[C@H]3CO4)CC2)sc1C(=O)c1c(F)cccc1F [Example V143],90,,,34
Nc1nc(NC2CCN(S(=O)(=O)CCCNCC3CCCO3)CC2)sc1C(=O)c1c(F)cccc1F (stereo not drawn) [Example V20],81,,,9
CC(C)N1CCN(CCCS(=O)(=O)N2CCC(Nc3nc(N)c(C(=O)c4c(F)cccc4F)s3)CC2)CC1 [Example V115],75,,,9

# Continued, in another order:
inhibition at 0.05 µM (CDK2/Cyclin A) [%],Ki (CDK2/Cyclin A) [nM],IC50 (HCT-116 cell line) [nM],Structure (SMILES),inhibition at 0.175 µM (HCT-116 cell line) [%]
80,,,Nc1nc(NC2CCN(S(=O)(=O)CCCNCc3cccnc3)CC2)sc1C(=O)c1c(F)cccc1F [Example V6],1
81,,,Cc1cnc(CNCCCS(=O)(=O)N2CCC(Nc3nc(N)c(C(=O)c4c(F)cccc4F)s3)CC2)cn1 [Example V43],17
92,,,Nc1nc(NC2CCN(S(=O)(=O)CCCNCc3ccc(F)cc3)CC2)sc1C(=O)c1c(F)cccc1F [Example V52],65
91,,,Nc1nc(NC2CCN(S(=O)(=O)CCCNCc3cccc(F)c3)CC2)sc1C(=O)c1c(F)cccc1F [Example V100],88
84,,,C=CCNCCCS(=O)(=O)N1CCC(Nc2nc(N)c(C(=O)c3c(F)cccc3F)s2)CC1 [Example V103],37
82,,,Nc1nc(NC2CCN(S(=O)(=O)CCCNCCCc3c[nH]cn3)CC2)sc1C(=O)c1c(F)cccc1F [Example V146],13
81,,,CCOCCNCCCS(=O)(=O)N1CCC(Nc2nc(N)c(C(=O)c3c(F)cccc3F)s2)CC1 [Example V98],21
81,,,CC1=NNC(=O)C1CNCCCS(=O)(=O)N1CCC(Nc2nc(N)c(C(=O)c3c(F)cccc3F)s2)CC1 (stereo not drawn) [Example V172],11
91,,,Cc1ccc(CNCCCS(=O)(=O)N2CCC(Nc3nc(N)c(C(=O)c4c(F)cccc4F)s3)CC2)cc1 [Example V80],21
89,,,Nc1nc(NC2CCN(S(=O)(=O)CCCNCc3ccco3)CC2)sc1C(=O)c1c(F)cccc1F [Example V24],48
,4,90,"Nc1nc(NC2CCN(S(=O)(=O)CCCNCc3ccccc3F)CC2)sc1C(=O)c1c(F)cccc1F [Example V183, (4-Amino-2-{[1-({3-[(2-fluorobenzyl)amino]propyl}sulfonyl)-4-piperidinyl]amino}-1,3-thiazol-5-yl)(2,6-difluorophenyl)methanone.]",
93,,,Cc1ccccc1CNCCCS(=O)(=O)N1CCC(Nc2nc(N)c(C(=O)c3c(F)cccc3F)s2)CC1 [Example V27],86
75,,,Nc1nc(NC2CCN(S(=O)(=O)CCCNCCCO)CC2)sc1C(=O)c1c(F)cccc1F [Example V4],19
81,,,Nc1nc(NC2CCN(S(=O)(=O)CCCNCCO)CC2)sc1C(=O)c1c(F)cccc1F [Example V91],13
85,,,Cc1ccnc(NCCCS(=O)(=O)N2CCC(Nc3nc(N)c(C(=O)c4c(F)cccc4F)s3)CC2)c1 [Example V109],0
